Data taken from US4070469A, “Compound for the treatment of bovine mastitis” (priority 1975, dated 1978).
Converted amounts (≈) assume the structure as drawn. Like-named read-outs stand apart in the source and are kept apart here.

Legend:
Staph.Aureus = assay: Minimal bactericidal activity (MBC) in milk, field isolates; type: cell-based; conditions: in milk at pH 7.2 - 7.4; for MBC: Staphylococcus aureus
Text: (§1) The activity of some of said nitrofuryl quinolines derivatives against Strep.uberis and Stap.Aureus in milk has been compared with the activity of some of the compounds so far utilised in the treatment of bovine mastitis. The results are shown in Table I. (The nitrofuryl quinoline derivatives have general formula [drawing 1] the meaning of R, A, R', B, Y, X and Z being given in the Table. R1 =O whenever indicated then the N-oxide is concerned; NF stands for nitrofuryl)
(§2) Minimal Bactericidal/Activity (MBC) of representative Nitrofuryl
(§3) in mcg/ml in milk at pH 7.2 - 7.4. Versus Standards (Field

Strep.uberis = assay: as above; type: cell-based; conditions: in milk at pH 7.2 - 7.4; for MBC: Streptococcus uberis
Text: as §1, §2, §3

[1] = field isolate 2337, read-out: Minimal Bactericidal Activity (MBC), Staph.Aureus 2337
[2] = field isolate 2372, read-out: Minimal Bactericidal Activity (MBC), Staph.Aureus 2372
[3] = field isolate 60B, read-out: Minimal Bactericidal Activity (MBC), Strep.uberis 60B
[4] = field isolate 127A, read-out: Minimal Bactericidal Activity (MBC), Strep.uberis 127A

| Molecule | MBC (Staph.Aureus; [1]) [µg/mL] | MBC (Staph.Aureus; [2]) [µg/mL] | MBC (Strep.uberis; [3]) [µg/mL] | MBC (Strep.uberis; [4]) [µg/mL] | Minimal Bactericidal Activity (MBC), Staph.Aureus 2337 (Staph.Aureus; field isolate 2337) [µg/mL] | Minimal Bactericidal Activity (MBC), Staph.Aureus 2372 (Staph.Aureus; field isolate 2372) [µg/mL] | Minimal Bactericidal Activity (MBC), Strep.uberis 60B (Strep.uberis; field isolate 60B) [µg/mL] | Minimal Bactericidal Activity (MBC), Strep.uberis 127A (Strep.uberis; field isolate 127A) [µg/mL] |
| --- | --- | --- | --- | --- | --- | --- | --- | --- |
| Cc1cc(-c2ccc([N+](=O)[O-])o2)[n+]([O-])c2ccccc12 [Compound 4] | 10 (≈ 37 µM) | > 10 | > 10 | > 10 |  |  |  |  |
| CCc1cc(-c2ccc([N+](=O)[O-])o2)c2ccccc2[n+]1[O-] [Compound 30] | 5 (≈ 17.6 µM) | 10 (≈ 35.2 µM) | 5 (≈ 17.6 µM) | > 10 |  |  |  |  |
| CCc1ccc2nc(CC)cc(-c3ccc([N+](=O)[O-])o3)c2c1 [Compound 31] | > 10 | > 10 | > 10 | > 10 |  |  |  |  |
| CCc1cc(-c2ccc([N+](=O)[O-])o2)c2ccc(OC)cc2[n+]1[O-] [Compound 24] | > 10 | 10 (≈ 31.8 µM) | > 10 | > 10 |  |  |  |  |
| CCCOc1ccc2c(-c3ccc([N+](=O)[O-])o3)cc(C)[n+]([O-])c2c1 [Compound 42] | 10 (≈ 30.5 µM) | 5 (≈ 15.2 µM) | 5 (≈ 15.2 µM) | 5 (≈ 15.2 µM) |  |  |  |  |
| O=[N+]([O-])c1ccc(-c2cc(C=NO)nc3ccccc23)o1 [Compound 15] | 1 (≈ 3.53 µM) | 1 (≈ 3.53 µM) | 1 (≈ 3.53 µM) | 1 (≈ 3.53 µM) |  |  |  |  |
| COc1ccc2c(-c3ccc([N+](=O)[O-])o3)cc(C)[n+]([O-])c2c1 [Compound 23] | 5 (≈ 16.7 µM) | 5 (≈ 16.7 µM) | 5 (≈ 16.7 µM) | 5 (≈ 16.7 µM) |  |  |  |  |
| Necmycin [reference compound] |  |  |  |  | 12.5 | 12.5 | 200 | 200 |
| O=C1OCCN1/N=C/c1ccc([N+](=O)[O-])o1 [Furazolidone, reference compound] | > 10 | > 10 | 10 (≈ 44.4 µM) | > 10 |  |  |  |  |
| CCc1cccc2c(-c3ccc([N+](=O)[O-])o3)cc(C)nc12 [Compound 10] | > 10 | > 10 | > 10 | > 10 |  |  |  |  |
| CC(=O)OCc1cc(-c2ccc([N+](=O)[O-])o2)c2ccccc2n1 [Compound 33] | > 10 | > 10 | > 10 | > 10 |  |  |  |  |
| CCOc1ccc2c(-c3ccc([N+](=O)[O-])o3)cc(C(=O)O)nc2c1 [Compound 17] | 1 (≈ 3.05 µM) | 0.5 (≈ 1.52 µM) | 0.03 (≈ 0.0914 µM) | 1 (≈ 3.05 µM) |  |  |  |  |
| Cc1ccc2c(-c3ccc([N+](=O)[O-])o3)cc(C)[n+]([O-])c2c1 [Compound 21] | 5 (≈ 17.6 µM) | 10 (≈ 35.2 µM) | 5 (≈ 17.6 µM) | 10 (≈ 35.2 µM) |  |  |  |  |
| CCOc1ccc2c(-c3ccc([N+](=O)[O-])o3)cc(C=NO)nc2c1 [Compound 38] | 10 (≈ 30.6 µM) | 5 (≈ 15.3 µM) | 5 (≈ 15.3 µM) | 10 (≈ 30.6 µM) |  |  |  |  |
| COc1ccc2c(-c3ccc([N+](=O)[O-])o3)cc(C)nc2c1 [Compound 9] | 5 (≈ 17.6 µM) | 5 (≈ 17.6 µM) | 10 (≈ 35.2 µM) | 5 (≈ 17.6 µM) |  |  |  |  |
| O=[N+]([O-])c1ccc(-c2ccnc3ccccc23)o1 [Compound 11] | > 10 | > 10 | 10 (≈ 41.6 µM) | > 10 |  |  |  |  |
| COc1cc2nc(C)cc(-c3ccc([N+](=O)[O-])o3)c2cc1OC [Compound 37] | 10 (≈ 31.8 µM) | 5 (≈ 15.9 µM) | 5 (≈ 15.9 µM) | 10 (≈ 31.8 µM) |  |  |  |  |
